Where two headings read alike, the source gives them in different places.
Assays:
HIF-1α = assay: Phase 1a multiple ascending dose study: proportion of HIF-1α positive cells in colonic biopsies (immunohistochemistry, manual assessment); type: in vivo, human; conditions: for Proportion of HIF-1α Positive Cells, CFB (change from baseline), Mean / Proportion of HIF-1α Positive Cells, CFB (change from baseline), Median: baseline to Day 8
Description: Manual assessment of the proportion of HIF-1α positive cells was conducted in 10 regions of interest, selected in whole tissue sections. (Note, the study was amended to add this immunohistochemistry analysis; thus data is only available for cohorts 4 and 5 (120 mg and 60 mg), cohorts 1-3 lacked this type of biopsy).
Table 50 presents the proportions of HIF-1α positive cells evaluated at baseline and Day 8, and the change from baseline to Day 8 of the proportion of HIF-1α positive cells. The mean proportion of HIF-1α positive cells ranged from 1% to 80% across all experimental groups.

[1] = Biopharmaceutical Classification System (BCS) classification; type: physicochemical; conditions: low solubility/dissolution rate and high permeability
Description: Compound 1 can be classified as a BCS Class 2 compound (according to the Biopharmaceutical Classification System as defined by the “Guidance for Industry: Waiver of In Vivo Bioavailability and Bioequivalence studies for immediate release solid oral dosage forms based on a Biopharmaceutics Classification System”) which indicates it has a low solubility/dissolution rate and high permeability.

EPO or VEGF = assay: Phase 1a multiple dose tablet study (Example 26): EPO and VEGF change from baseline to Day 7; parameters: species or system human; conditions: in vivo
EPO and VEGF = assay: Phase 1a multiple ascending dose study: circulating EPO and VEGF levels in serum; type: in vivo, human; conditions: serum samples
[2] = Phase 1a multiple ascending dose study (oral solution): safety and tolerability; type: in vivo, human
Description: The primary objective of the study was to assess the safety and tolerability of ascending doses of Compound 1 after multiple oral doses administration. The safety endpoints included TEAE incidence and severity, clinically significant changes in vital signs, ECG parameters, clinical laboratory tests and physical examination.
Safety and tolerability were assessed by review of vital signs, laboratory results (serum chemistry, hematology and urinalysis), ECG, physical examination findings, AEs, and PK assessment following the Day 1 and Day 7 doses. […] One event of vomiting led to early trial discontinuation in the 240 mg dose group.

[3] = Phase 1a multiple ascending dose study: Compound 1 in fecal samples; type: in vivo, human; conditions: for dose excreted: human, feces, oral, read-out: Mean recovery of Compound 1 in feces, range across cohorts
Description: Fecal samples were collected, when possible, over 24 hours (0-24 hours) post administration on Day 1 and Day 7; the absolute amount of Compound 1 measured (mg) is shown Table 48.

[4] = Phase 1a multiple ascending dose study: Compound 1 concentration in colon tissue (colonic mucosal biopsy); type: in vivo, human
Description: Colonic mucosal biopsy samples were acquired.

[5] = Pooled (60 mg and 120 mg), Baseline
[6] = Pooled (60 mg and 120 mg), Day 8

CC(C)(C)OC(=O)N1CCN(Cc2ccn(Cc3ccc(Cl)cc3)c(=O)c2O)CC1 [Compound 1, tert-butyl 4-((1-(4-chlorobenzyl)-3-hydroxy-2-oxo-1,2-dihydropyridin-4-yl)methyl)piperazine-1-carboxylate]
Proportion of HIF-1α Positive Cells, Mean (HIF-1α; 60 mg, Baseline): 6.3%
Proportion of HIF-1α Positive Cells, Median (HIF-1α; 60 mg, Baseline): 5.8%
Proportion of HIF-1α Positive Cells, Mean (HIF-1α; 60 mg, Day 8): 44.5%
Proportion of HIF-1α Positive Cells, Median (HIF-1α; 60 mg, Day 8): 46.5%
Proportion of HIF-1α Positive Cells, CFB (change from baseline), Mean (HIF-1α; 60 mg): 38.3%
Proportion of HIF-1α Positive Cells, CFB (change from baseline), Median (HIF-1α; 60 mg): 38.0%
Proportion of HIF-1α Positive Cells, Mean (HIF-1α; 120 mg, Baseline): 12.0%
Proportion of HIF-1α Positive Cells, Median (HIF-1α; 120 mg, Baseline): 6.3%
Proportion of HIF-1α Positive Cells, Mean (HIF-1α; 120 mg, Day 8): 44.1%
Proportion of HIF-1α Positive Cells, Median (HIF-1α; 120 mg, Day 8): 45.3%
Proportion of HIF-1α Positive Cells, CFB (change from baseline), Mean (HIF-1α; 120 mg): 32.1%
Proportion of HIF-1α Positive Cells, CFB (change from baseline), Median (HIF-1α; 120 mg): 28.5%
Proportion of HIF-1α Positive Cells, Mean (HIF-1α; [5]): 9.1%
Proportion of HIF-1α Positive Cells, Median (HIF-1α; [5]): 5.8%
Proportion of HIF-1α Positive Cells, Mean (HIF-1α; [6]): 44.3%
Proportion of HIF-1α Positive Cells, Median (HIF-1α; [6]): 45.3%
Proportion of HIF-1α Positive Cells, CFB (change from baseline), Mean (HIF-1α; Pooled (60 mg and 120 mg)): 35.2%
Proportion of HIF-1α Positive Cells, CFB (change from baseline), Median (HIF-1α; Pooled (60 mg and 120 mg)): 29.0%
Increase from baseline to Day 8 in proportion of HIF-1α positive cells [mean±SD] (HIF-1α; combined group (Pooled; 120 mg and 60 mg cohorts)): 35.2+28.8
BCS classification [1]: BCS Class 2
Effects on EPO or VEGF from baseline to Day 7 compared to placebo (EPO or VEGF): no consistent or dose-related effects
Effects on circulating EPO and VEGF levels (EPO and VEGF): no Compound 1-related effects
Tolerability ([2]; 240 mg dose once daily): less well tolerated
Tolerability ([2]; doses up to 120 mg once daily for 8 days): generally well tolerated
Mean observed amount of Compound 1 in fecal samples ([3]; Cohort 1, 60 mg once daily, DAY 7, 0-24 hours): 22.0 mg
Mean observed amount of Compound 1 in fecal samples ([3]; Cohort 1, 60 mg, DAY 1, 0-24 hours): 11.8 mg
Mean observed amount of Compound 1 in fecal samples ([3]; Cohort 2, 120 mg once daily, DAY 7, 0-24 hours): 37.5 mg
Mean observed amount of Compound 1 in fecal samples ([3]; Cohort 2, 120 mg, DAY 1, 0-24 hours): 5.9 mg
Mean observed amount of Compound 1 in fecal samples ([3]; Cohort 3, 240 mg once daily, DAY 7, 0-24 hours): 125.3 mg
Mean observed amount of Compound 1 in fecal samples ([3]; Cohort 3, 240 mg, DAY 1, 0-24 hours): 46.5 mg
Mean observed amount of Compound 1 in fecal samples ([3]; Cohort 4, 120 mg once daily, DAY 7, 0-24 hours): 33.9 mg
Mean observed amount of Compound 1 in fecal samples ([3]; Cohort 4, 120 mg, DAY 1, 0-24 hours): 14.4 mg
Mean observed amount of Compound 1 in fecal samples ([3]; Cohort 5, 60 mg once daily, DAY 7, 0-24 hours): 11.6 mg
Mean observed amount of Compound 1 in fecal samples ([3]; Cohort 5, 60 mg, DAY 1, 0-24 hours): 13.0 mg
Mean fecal concentrations of Compound 1, range across cohorts ([3]; Day 1): 40 to 225 µg/g
Mean fecal concentrations of Compound 1, range across cohorts ([3]; Day 7): 95 to 506 µg/g
dose excreted ([3]; Day 1): 5 to 22%
dose excreted ([3]; Day 7): 19 to 52%
Compound 1 Concentration in Colon Tissue, Median (Range) ([4]; Cohort 2, 120 mg): 10.75 (0-1150) ng/g
Compound 1 Concentration in Colon Tissue, Median (Range) ([4]; Cohort 3, 240 mg): 23.50 (0-301) ng/g
Compound 1 Concentration in Colon Tissue, Median (Range) ([4]; Cohort 4, 120 mg): 127.47 (0-3330) ng/g
Compound 1 Concentration in Colon Tissue, Median (Range) ([4]; Cohort 5, 60 mg): 102.30 (0-1360) ng/g
Compound 1 colon tissue levels (in words) ([4]; colonic mucosal biopsy samples): increase in a dose-dependent manner

Source: patent US20220175766A1, “COMPOSITIONS AND METHODS OF TREATMENT” (GB004, Inc., priority 2019, published 2022)
